Test results published in patent US20220281848A1, “PYRAZOLE-SUBSTITUTED PYRROLIDINONES AS HERBICIDES” (FMC Corporation, priority 2019, published 2022).

Key:
[1] = system: plants; assay: Test D post-emergence, other plants of Tables D2 and D4; type: in vivo; conditions: for ALOMY damage rating (100=total damage to plant; 0=no damage to plant) / AVEFA damage rating (100=total damage to plant; 0=no damage to plant) / BEAVA damage rating (100=total damage to plant; 0=no damage to plant) / BROTE damage rating (100=total damage to plant; 0=no damage to plant) / BRSNN damage rating (100=total damage to plant; 0=no damage to plant) / CHEAL damage rating (100=total damage to plant; 0=no damage to plant) / GALAP damage rating (100=total damage to plant; 0=no damage to plant) / HORVW damage rating (100=total damage to plant; 0=no damage to plant) / KCHSC damage rating (100=total damage to plant; 0=no damage to plant) / LOLPE damage rating (100=total damage to plant; 0=no damage to plant) / POAAN damage rating (100=total damage to plant; 0=no damage to plant) / POLCO damage rating (100=total damage to plant; 0=no damage to plant) / STEME damage rating (100=total damage to plant; 0=no damage to plant) / VERPE damage rating (100=total damage to plant; 0=no damage to plant): "Cereals" Postemergent, evaluated after 15 d; for damage to plant (100=total damage to plant; 0=no damage to plant), ABUTH / damage to plant (100=total damage to plant; 0=no damage to plant), AMARE / damage to plant (100=total damage to plant; 0=no damage to plant), BIDPI / damage to plant (100=total damage to plant; 0=no damage to plant), BRAPL / damage to plant (100=total damage to plant; 0=no damage to plant), CYPES / damage to plant (100=total damage to plant; 0=no damage to plant), DIGSA / damage to plant (100=total damage to plant; 0=no damage to plant), ECHCG / damage to plant (100=total damage to plant; 0=no damage to plant), ELEIN / damage to plant (100=total damage to plant; 0=no damage to plant), EPHHL / damage to plant (100=total damage to plant; 0=no damage to plant), GLXMA / damage to plant (100=total damage to plant; 0=no damage to plant), IPOHE / damage to plant (100=total damage to plant; 0=no damage to plant), ORYSA / damage to plant (100=total damage to plant; 0=no damage to plant), PANMI / damage to plant (100=total damage to plant; 0=no damage to plant), SETFA / damage to plant (100=total damage to plant; 0=no damage to plant), SIDSP / damage to plant (100=total damage to plant; 0=no damage to plant), SORVU: post-emergence
How it was run: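 Damage was rated visually from 0 (none) to 100 (total), at 20 DAA for pre-emergence and 15 d for post-emergence. Plants grew from safener-treated seed in a glasshouse at 24/18° C. or 20/16° C. day/night, 65% humidity, watered twice daily.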

[2] = system: wheat; assay: Test D post-emergence, wheat seed treated with a herbicide safener; type: in vivo; conditions: "Cereals" Postemergent
How it was run: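 Safener-seed-treated maize and wheat were sprayed with an emulsifiable formulation diluted in 0.2% v/v adjuvant solution, one day after sowing (pre-emergence) or after about 12 days (post-emergence). Plants were grown in a glasshouse at 24/18 or 20/16 °C with 16 h light; damage was scored 0–100 at 20 DAA (pre) or 15 d (post).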

CCn1nc([C@@H]2CN(C)C(=O)[C@H]2C(=O)Nc2cccc(F)c2F)c2cccc(F)c21 [Compound 14]
ALOMY damage rating (100=total damage to plant; 0=no damage to plant) ([1]; Rates 130): 40 | ALOMY damage rating (100=total damage to plant; 0=no damage to plant) ([1]; Rates 250): 60 | ALOMY damage rating (100=total damage to plant; 0=no damage to plant) ([1]; Rates 500): 70 | AVEFA damage rating (100=total damage to plant; 0=no damage to plant) ([1]; Rates 130): 30 | AVEFA damage rating (100=total damage to plant; 0=no damage to plant) ([1]; Rates 250): 70 | AVEFA damage rating (100=total damage to plant; 0=no damage to plant) ([1]; Rates 500): 80 | BEAVA damage rating (100=total damage to plant; 0=no damage to plant) ([1]; Rates 130): 30 | BEAVA damage rating (100=total damage to plant; 0=no damage to plant) ([1]; Rates 250): 30 | BEAVA damage rating (100=total damage to plant; 0=no damage to plant) ([1]; Rates 500): 20 | BROTE damage rating (100=total damage to plant; 0=no damage to plant) ([1]; Rates 130): 0 | BROTE damage rating (100=total damage to plant; 0=no damage to plant) ([1]; Rates 250): 10 | BROTE damage rating (100=total damage to plant; 0=no damage to plant) ([1]; Rates 500): 30 | BRSNN damage rating (100=total damage to plant; 0=no damage to plant) ([1]; Rates 130): 40 | BRSNN damage rating (100=total damage to plant; 0=no damage to plant) ([1]; Rates 250): 50 | BRSNN damage rating (100=total damage to plant; 0=no damage to plant) ([1]; Rates 500): 40 | CHEAL damage rating (100=total damage to plant; 0=no damage to plant) ([1]; Rates 130): 50 | CHEAL damage rating (100=total damage to plant; 0=no damage to plant) ([1]; Rates 500): 40 | GALAP damage rating (100=total damage to plant; 0=no damage to plant) ([1]; Rates 130): 0 | GALAP damage rating (100=total damage to plant; 0=no damage to plant) ([1]; Rates 250): 10 | GALAP damage rating (100=total damage to plant; 0=no damage to plant) ([1]; Rates 500): 20 | HORVW damage rating (100=total damage to plant; 0=no damage to plant) ([1]; Rates 130): 20 | HORVW damage rating (100=total damage to plant; 0=no damage to plant) ([1]; Rates 250): 70 | HORVW damage rating (100=total damage to plant; 0=no damage to plant) ([1]; Rates 500): 70 | KCHSC damage rating (100=total damage to plant; 0=no damage to plant) ([1]; Rates 130): 10 | KCHSC damage rating (100=total damage to plant; 0=no damage to plant) ([1]; Rates 250): 20 | KCHSC damage rating (100=total damage to plant; 0=no damage to plant) ([1]; Rates 500): 20 | LOLPE damage rating (100=total damage to plant; 0=no damage to plant) ([1]; Rates 130): 0 | LOLPE damage rating (100=total damage to plant; 0=no damage to plant) ([1]; Rates 250): 20 | LOLPE damage rating (100=total damage to plant; 0=no damage to plant) ([1]; Rates 500): 50 | POAAN damage rating (100=total damage to plant; 0=no damage to plant) ([1]; Rates 130): 80 | POAAN damage rating (100=total damage to plant; 0=no damage to plant) ([1]; Rates 250): 90 | POAAN damage rating (100=total damage to plant; 0=no damage to plant) ([1]; Rates 500): 90 | POLCO damage rating (100=total damage to plant; 0=no damage to plant) ([1]; Rates 130): 20 | POLCO damage rating (100=total damage to plant; 0=no damage to plant) ([1]; Rates 250): 30 | POLCO damage rating (100=total damage to plant; 0=no damage to plant) ([1]; Rates 500): 40 | STEME damage rating (100=total damage to plant; 0=no damage to plant) ([1]; Rates 250): 50 | STEME damage rating (100=total damage to plant; 0=no damage to plant) ([1]; Rates 500): 70 | VERPE damage rating (100=total damage to plant; 0=no damage to plant) ([1]; Rates 130): 50 | VERPE damage rating (100=total damage to plant; 0=no damage to plant) ([1]; Rates 250): 50 | VERPE damage rating (100=total damage to plant; 0=no damage to plant) ([1]; Rates 500): 60 | damage to plant (100=total damage to plant; 0=no damage to plant), ABUTH ([1]; rate 130, evaluated after 15 d): 0 | damage to plant (100=total damage to plant; 0=no damage to plant), ABUTH ([1]; rate 250, evaluated after 15 d): 0 | damage to plant (100=total damage to plant; 0=no damage to plant), ABUTH ([1]; rate 500, evaluated after 15 d): 10 | damage to plant (100=total damage to plant; 0=no damage to plant), AMARE ([1]; rate 130, evaluated after 15 d): 0 | damage to plant (100=total damage to plant; 0=no damage to plant), AMARE ([1]; rate 250, evaluated after 15 d): 0 | damage to plant (100=total damage to plant; 0=no damage to plant), AMARE ([1]; rate 500, evaluated after 15 d): 30 | damage to plant (100=total damage to plant; 0=no damage to plant), BIDPI ([1]; rate 130, evaluated after 15 d): 10 | damage to plant (100=total damage to plant; 0=no damage to plant), BIDPI ([1]; rate 250, evaluated after 15 d): 20 | damage to plant (100=total damage to plant; 0=no damage to plant), BIDPI ([1]; rate 500, evaluated after 15 d): 30 | damage to plant (100=total damage to plant; 0=no damage to plant), BRAPL ([1]; rate 130, evaluated after 15 d): 80 | damage to plant (100=total damage to plant; 0=no damage to plant), BRAPL ([1]; rate 250, evaluated after 15 d): 70 | damage to plant (100=total damage to plant; 0=no damage to plant), BRAPL ([1]; rate 500, evaluated after 15 d): 80 | damage to plant (100=total damage to plant; 0=no damage to plant), CYPES ([1]; rate 130, evaluated after 15 d): 0 | damage to plant (100=total damage to plant; 0=no damage to plant), CYPES ([1]; rate 250, evaluated after 15 d): 0 | damage to plant (100=total damage to plant; 0=no damage to plant), CYPES ([1]; rate 500, evaluated after 15 d): 0 | damage to plant (100=total damage to plant; 0=no damage to plant), DIGSA ([1]; rate 130, evaluated after 15 d): 60 | damage to plant (100=total damage to plant; 0=no damage to plant), DIGSA ([1]; rate 250, evaluated after 15 d): 70 | damage to plant (100=total damage to plant; 0=no damage to plant), DIGSA ([1]; rate 500, evaluated after 15 d): 70 | damage to plant (100=total damage to plant; 0=no damage to plant), ECHCG ([1]; rate 250, evaluated after 15 d): 80 | damage to plant (100=total damage to plant; 0=no damage to plant), ECHCG ([1]; rate 500, evaluated after 15 d): 80 | damage to plant (100=total damage to plant; 0=no damage to plant), ELEIN ([1]; rate 130, evaluated after 15 d): 0 | damage to plant (100=total damage to plant; 0=no damage to plant), ELEIN ([1]; rate 250, evaluated after 15 d): 0 | damage to plant (100=total damage to plant; 0=no damage to plant), ELEIN ([1]; rate 500, evaluated after 15 d): 0 | damage to plant (100=total damage to plant; 0=no damage to plant), EPHHL ([1]; rate 130, evaluated after 15 d): 20 | damage to plant (100=total damage to plant; 0=no damage to plant), EPHHL ([1]; rate 250, evaluated after 15 d): 30 | damage to plant (100=total damage to plant; 0=no damage to plant), EPHHL ([1]; rate 500, evaluated after 15 d): 50 | damage to plant (100=total damage to plant; 0=no damage to plant), GLXMA ([1]; rate 130, evaluated after 15 d): 0 | damage to plant (100=total damage to plant; 0=no damage to plant), GLXMA ([1]; rate 250, evaluated after 15 d): 0 | damage to plant (100=total damage to plant; 0=no damage to plant), GLXMA ([1]; rate 500, evaluated after 15 d): 0 | damage to plant (100=total damage to plant; 0=no damage to plant), IPOHE ([1]; rate 130, evaluated after 15 d): 0 | damage to plant (100=total damage to plant; 0=no damage to plant), IPOHE ([1]; rate 250, evaluated after 15 d): 10 | damage to plant (100=total damage to plant; 0=no damage to plant), IPOHE ([1]; rate 500, evaluated after 15 d): 20 | damage to plant (100=total damage to plant; 0=no damage to plant), ORYSA ([1]; rate 130, evaluated after 15 d): 0 | damage to plant (100=total damage to plant; 0=no damage to plant), ORYSA ([1]; rate 250, evaluated after 15 d): 0 | damage to plant (100=total damage to plant; 0=no damage to plant), ORYSA ([1]; rate 500, evaluated after 15 d): 0 | damage to plant (100=total damage to plant; 0=no damage to plant), PANMI ([1]; rate 130, evaluated after 15 d): 0 | damage to plant (100=total damage to plant; 0=no damage to plant), PANMI ([1]; rate 250, evaluated after 15 d): 0 | damage to plant (100=total damage to plant; 0=no damage to plant), PANMI ([1]; rate 500, evaluated after 15 d): 0 | damage to plant (100=total damage to plant; 0=no damage to plant), SETFA ([1]; rate 130, evaluated after 15 d): 70 | damage to plant (100=total damage to plant; 0=no damage to plant), SETFA ([1]; rate 250, evaluated after 15 d): 70 | damage to plant (100=total damage to plant; 0=no damage to plant), SETFA ([1]; rate 500, evaluated after 15 d): 70 | damage to plant (100=total damage to plant; 0=no damage to plant), SIDSP ([1]; rate 130, evaluated after 15 d): 0 | damage to plant (100=total damage to plant; 0=no damage to plant), SIDSP ([1]; rate 250, evaluated after 15 d): 0 | damage to plant (100=total damage to plant; 0=no damage to plant), SIDSP ([1]; rate 500, evaluated after 15 d): 30 | damage to plant (100=total damage to plant; 0=no damage to plant), SORVU ([1]; rate 130, evaluated after 15 d): 0 | damage to plant (100=total damage to plant; 0=no damage to plant), SORVU ([1]; rate 250, evaluated after 15 d): 0 | damage to plant (100=total damage to plant; 0=no damage to plant), SORVU ([1]; rate 500, evaluated after 15 d): 20 | TRZAW damage rating (100=total damage to plant; 0=no damage to plant) ([2]; Rates 130, evaluated after 15 d): 10 | TRZAW damage rating (100=total damage to plant; 0=no damage to plant) ([2]; Rates 250, evaluated after 15 d): 70 | TRZAW damage rating (100=total damage to plant; 0=no damage to plant) ([2]; Rates 500, evaluated after 15 d): 80
